In one data set the target is T1, HER2 (Homo sapiens, UniProt P04626).
T1 construct: endogenous in cells; host or cells: BT474 breast cancer cells
Description: Confocal ICC of HER2 localisation / cellular internalization in BT474 cells. The class given is cell-based. The conditions noted are these: BT474 cell line, 10 nM, 48 hr, confocal microscope (FIGS. 2A to 2L). The procedure:
(2) The cells cultured on 8-well chamber slides were fixed with 4% paraformaldehyde, washed with PBS, and cultured for 10 min with 0.2% Triton X-100. Thereafter, the cells were cultured overnight at 4° C. with primary antibodies in an antibody dilution buffer and then cultured at room temperature for 2 hr with fluorescence-conjugated secondary antibodies. Thereafter, the cells were mounted on ProLong Gold Antifade Reagent containing DAPI (4′,6′-diamidine-2′-phenylindole dihydrochloride). Particularly, each of the cultured breast cancer cell lines was subjected to immunocytochemistry (ICC) using a HER2 antibody, the nucleus thereof was stained with DAPI, and HER2 (red) and nucleus (blue) regions were imaged using a confocal microscope.
(1) ICC was performed using the HER2 antibody.

For data set [1], the system named is HER2-positive breast cancer BT474 cell line and HER2-negative breast cancer T47D cell line, co-cultured 1:1. The data set can be described thus: p-His3 (mitotic arrest marker) ICC in co-cultured HER2-positive and HER2-negative cells. The class given is cell-based. The conditions noted are these: for expression of p-His3 depending on HER2 expression (confocal images): BT474/T47D co-culture 1:1, 10 nM, 24 hr (FIG. 3). The protocol: (2) HER2 and a mitotic arrest marker, namely phospho-Histone H3 (p-His3), were stained with ICC, and the HER2-positive breast cancer BT474 cell line and the HER2-negative breast cancer T47D cell line, the nuclei of which were stained with DAPI, were co-cultured at a ratio of 1:1 and treated with a control (DMSO), DM1, and Aptamer-DM1 at a concentration of 10 nM for 24 hr. Thereafter, the nuclei (blue), p-His3 (green), and HER2 (red) were imaged using a confocal microscope. The number of cells in which p-His3 was detected was quantified based on whether HER2 was expressed or not.

The test system of data set [2] is HER2-positive breast cancer cell lines (SKBR3, BT474, MDA-MB-453). The data set can be described thus: Apoptosis rate (sub-G1%) by PI DNA content flow cytometry, HER2-positive cell lines. It is filed as cell-based. The conditions noted are these: 10 nM, 72 hr (FIG. 5); for apoptosis rate (sub-G1%): HER2-positive cell lines SKBR3, BT474, MDA-MB-453. The protocol:
(§1) Thereafter, the apoptosis rate (sub-G1%) of cancer cells was measured through DNA content analysis using flow cytometry.
(§2) (2) Typically, the cell cycle includes, depending on the amount of DNA in cells, G1 (cell growth phase)-S (cell replication phase)-G2/M (cell mitotic phase). […] The results of apoptosis are represented by the percentage of sub-G1 in the cell cycle.
For orientation: Flow cytometry measures light scatter and fluorescence of single cells or particles in a stream.

Data set [3] deals with HER2-negative breast cancer cell lines (MCF7, T47D). Description: Apoptosis rate (sub-G1%) by PI DNA content flow cytometry, HER2-negative cell lines. The class given is cell-based. As to conditions: 10 nM, 72 hr (FIG. 5). The procedure:
as §1, §2

In data set [4] the test system is HER2-positive BT474 tumors (compared with HER2-negative T47D tumors). Description: Breast cancer animal model, tumor volume and TUNEL assay. The class given is in vivo, BALB/c nude mice. The conditions noted are these: 1 mg/kg, 2 mg/kg intraperitoneally three times a week. The procedure: (1) To the fourth breast fat pads of immunodeficient 6-week-old female BALB/c nude mice, HER2-positive BT474 cancer cells (3×10^6 cells) and HER2-negative T47D cancer cells (3×10^6 cells) were transplanted, after which Aptamer-DM1 (1 mg/kg, 2 mg/kg, body weight) was intraperitoneally administered three times a week. Then, the tumor volume was measured for 18 days. The tumor volume (V) was measured using a caliper and calculated according to V=(length×width^2)/2. In the TUNEL assay, the tumors were removed from the mice, fixed with 10% neutral-buffered formalin and embedded in paraffin. The 4 μm thick tissue section was mounted on a positively charged glass slide, deparaffinized with xylene, and […] through a graded alcohol series. After antigen retrieval, the above tissue section was boiled in a citric acid buffer (pH 6.0) and immunofluorescence was performed. In situ TUNEL was performed on the above tissue section using a TUNEL kit (Roche Applied Sciences, Penzberg, GER), and the images thereof were obtained using a confocal scanning microscope.

Data set [5] relates to Trastuzumab-resistant BT474 cell line (BT474-Tra). The data set can be described thus: Western blot of HER family / AKT signalling in Trastuzumab-resistant BT474 cells. The class given is cell-based. The conditions noted are these: 10 nM. The protocol: For the BT474 and BT474-Tra cell lines, the expression of p185HER2, p95HER2, p-HER2, p-p95HER2, HERS, p-HER3, total-AKT, p-AKT, and PARP was analyzed via Western blot. Cell viability was measured using a CellTiter 96* Aqueous One Solution Cell Proliferation Assay [MTS, 3-(4,5-dimethylthiazol-2-yl)-5-(3-carboxymethoxyphenyl)-2-(4-sulfophenyl)-2H-tetrazolium], and the amount of produced formazan was determined by measuring absorbance at 490 nm using a Spectramax Plus 384 microplate analyzer. In the Western blot, the above cells were lysed in a lysis buffer (30 mM NaCl, 0.5% Triton X-100, 50 mM Tris-HCl; pH 7.4) containing phosphatase and a protease inhibitor, and the supernatant was collected and then the protein was […] using a Bradford protein assay kit. 30 μg of the protein was subjected to SDS-PAGE and electrophoresed with a nitrocellulose membrane. The membrane was cultured overnight at 4° C. with primary antibodies diluted in bovine serum albumin (BSA) and then cultured with horseradish peroxidase (HRP)-conjugated rabbit IgG (1:3000-1:10,000). Signal intensity was measured using an Enhanced Chemiluminescence Kit and an X-ray film, and quantified with AlphaEaseFC software.
A general note: A western blot detects proteins with antibodies after separation by electrophoresis.

A further data set has as its system JIMT-1 cell line. The data set can be described thus: Western blot of HER family / AKT signalling in JIMT-1 cells. It is filed as cell-based. As to conditions: JIMT-1, 10 nM, 72 hr, compared to control, DM1 and Aptamer (FIG. 10).
Another data set has as its system BT474-Tra cells. Description: Drug-resistant disease animal model, BT474-Tra tumors. The class given is in vivo, BALB/c nude mice. As to conditions: BT474-Tra transplanted mice, 1 mg/kg intraperitoneally, 15 days (FIG. 11). The procedure: (§3) Thereafter, the tumor volume was measured for 15 days. The results are shown in FIG. 11, and the results of in-vivo bioluminescence imaging of JIMT-1-transplanted mice are shown in FIG. 12. In-vivo bioluminescence imaging was performed in a manner in which the mice were anesthetized and administered with 150 mg/kg of luciferin, after which the tumor size and the transition state were measured using a bioluminescence imaging system.

In another data set the test system is JIMT-1 cells. The data set can be described thus: Drug-resistant disease animal model, JIMT-1 tumors (tumor volume, bioluminescence imaging). The class given is in vivo, BALB/c nude mice. The protocol: as §3
The mark [6] stands for this setting: BT474/T47D co-culture, 10 nM, 24 hr (FIG. 4).

{SH} = thiol (OH replaced by SH), used for disulfide linkage to DM1

On to `COc1cc2cc(c1Cl)N(C)C(=O)C[C@H](OC(=O)[C@H](C)N(C)C(C)=O)[C@]1(C)O[C@H]1[C@H](C)[C@@H]1C[C@@](O)(NC(=O)O1)[C@H](OC)/C=C/C=C(\C)C2` [DM1, maytansine, reference compound], for which the “HER2 localisation (cell membrane expression vs cellular internalization)” value at HER2 is recorded as “expression of HER2 on the cell membrane was observed”. Besides, in [1], the “expression of p-His3 depending on HER2 expression (confocal images)” value is given as “found regardless of whether HER2 was expressed or not”. The “proportions of cells in which p-His3 was detected, HER2-positive cell line versus HER2-negative cell line” value in [1] (setting [6]) was “not significantly different”. Also, the “apoptosis rate (sub-G1%)” value in data set [2] and in data set [3] was “relatively high apoptosis rate” throughout.

For “Aptamer-DM1: HER2-binding RNA aptamer (SEQ ID NO:1, 3′ thiol, 2′-O-methyl) linked via disulfide bonding to anticancer drug DM1 (GGGAGGACGAUGCGGGACUGUACGGGGCUCUGUGCAGACGACUCGCCCGA; 3' {SH}, sugars by position and backbone not given here; 2'-O-methyl modified, 3' thiol disulfide-linked to DM1)”, the “HER2 localisation (cell membrane expression vs cellular internalization)” value with HER2 was “cellular internalization of HER2 from the cell membrane was observed”. The “expression of p-His3 depending on HER2 expression (confocal images)” value in data set [1] is listed as “detected only in the cells in which HER2 was expressed”. Besides, the “proportion of cells in which p-His3 was detected, HER2-negative cell line” value in [1] (setting [6]) is recorded as “considerably decreased”. Moreover, the “proportion of cells in which p-His3 was detected, HER2-positive cell line” value in data set [1] (setting [6]) is “remarkably increased”. Further, the “apoptosis rate (sub-G1%)” value in [2] is reported as “high”; in data set [3], “low”. Besides, in data set [2] (HER2-positive cell lines), the “apoptosis rate compared to the DM1-treated group” value is listed as “high apoptosis rate in the HER2-positive cell lines compared to the DM1-treated group”. Also, in data set [4] (18 days, BT474 and T47D transplanted tumors (FIG. 6)), the “tumor growth (tumor volume)” value is “significantly decreased only the growth of HER2-positive BT474 tumors”. Also, in data set [4] (BT474 and T47D tumors (FIG. 7)), the “apoptosis in tumors (TUNEL assay)” value was “effectively induced apoptosis only in the HER2-positive BT474 tumors”. Also, the “expression of p95HER2” value in data set [5] (BT474-Tra cells, 72 hr (FIG. 10)) is recorded as “strongly inhibited”. In addition, the “expression of full-length p185HER2, phospho-HER2 (Tyr1221), HER3, phospho-HER3, AKT and phospho-Akt (Ser 43)” value in [5] (BT474-Tra, 72 hr, compared to control, DM1 and Aptamer (FIG. 10)) is on record as “significantly reduced”; in the data set on JIMT-1 cell line, “significantly reduced”. Besides, the tumor volume result in the data set on BT474-Tra cells is recorded as “significantly reduced the tumor volume”; in the data set with JIMT-1 cells (JIMT-1 transplanted mice, 1 mg/kg intraperitoneally, 15 days (FIG. 11)), “significantly reduced the tumor volume”. Moreover, in the data set on JIMT-1 cells (JIMT-1-transplanted mice, 1 mg/kg intraperitoneally (FIG. 12)), the “luciferin intensity (in-vivo bioluminescence imaging)” value was “remarkably decreased”.

(Values after patent US20180050114A1, “HER2 APTAMER-ANTICANCER DRUG COMPLEX FOR CANCER CELL CHEMOTHERAPY” (priority 2016, published 2018).)
